Source: paper PMC2939063, “In Vitro and In Vivo Studies of the Trypanocidal Properties of WRR-483 against Trypanosoma cruzi” (PLoS Neglected Tropical Diseases, 2010)
“Also recorded” adds a separate entry of the source.

Tested on: T. cruzi CA-I/72 infected C3H mice
Assay: Murine model of acute Chagas' disease
Type: in vivo, mouse
Parameters: key to Histopathology, Heart / Histopathology, Liver / Histopathology, Spleen / Histopathology, Colon: I/I: Inflammation and infiltration; +10A: Numerous nests of T. cruzi amastigotes; +A: 1-3 nests of T. cruzi amastigotes; Negative
Protocol: Three to four week old female C3H mice weighing ca. 20 g were used. The animals were separated into five lots of 5 mice per cage and infected with 10^6 tissue-culture derived trypomastigotes of the myotropic T. cruzi CA-I/72 cloned stock. The mice were treated with 100 mg compound/kg of body weight in 100 µL of solution (30–40% DMSO: 60–70% sterile distilled water) intraperitoneally twice a day. Treatment was initiated 12 h post infection and continued until cure, death of the animals, or for a total of 20 days. […] Parasitemias was determined at the end of the experiment when animals were euthanized. Tissues processed for histopathology include skeletal muscle, heart, liver, spleen, and colon. Blood (5–50 µL) was used for hemocultures. […] Compounds were considered toxic if life expectancy is lower than untreated controls (negative values). If necessary, PCR of blood and tissues was performed to confirm effectiveness of treatment and/or cure of treated animals. Results were expressed as survival (days) of treated animals.

[1] = individual infected mice, 100 mg/kg ip
[2] = individual infected mice, 100 mg/kg ip, 100 mg/kg

## CN1CCN(C(=O)N[C@@H](CCCNC(=N)N)C(=O)N[C@H](/C=C/S(=O)(=O)c2ccccc2)CCc2ccccc2)CC1 [WRR-483]
100 mg inhibitor/kg body weight in two daily doses, intraperitoneally, untreated control 21 days
  T. cruzi infected mouse survival: 110 days
10^6 trypomastigotes CA-I/72, untreated controls died within 21–60 days
  survival of the acute infection: survived the acute infection
[1]
  Histopathology, Colon: N
  Histopathology, Liver: N
  Histopathology, Spleen: N
[2]
  Histopathology, Heart: N and Mild i/i
  Histopathology, Sk. muscle: Moderate i/i; also recorded: +AIntense i/i
